From ChEMBL document CHEMBL3638480, “Inhibitors” (2013)

biological target: Glutaminyl-peptide cyclotransferase (Homo sapiens, UniProt Q16769); experiment: Spectrophotometic Assay: Spectrophotometic Assay: This novel assay was used to determine the kinetic parameters for most of the QC substrates. QC activity was analyzed spectrophotometrically using a continuous method, that was derived by adapting a previous discontinuous assay (Bateman, R.C.J. 1989 J Neurosci Methods 30, 23-28).
Sequence (Q16769 whole entry): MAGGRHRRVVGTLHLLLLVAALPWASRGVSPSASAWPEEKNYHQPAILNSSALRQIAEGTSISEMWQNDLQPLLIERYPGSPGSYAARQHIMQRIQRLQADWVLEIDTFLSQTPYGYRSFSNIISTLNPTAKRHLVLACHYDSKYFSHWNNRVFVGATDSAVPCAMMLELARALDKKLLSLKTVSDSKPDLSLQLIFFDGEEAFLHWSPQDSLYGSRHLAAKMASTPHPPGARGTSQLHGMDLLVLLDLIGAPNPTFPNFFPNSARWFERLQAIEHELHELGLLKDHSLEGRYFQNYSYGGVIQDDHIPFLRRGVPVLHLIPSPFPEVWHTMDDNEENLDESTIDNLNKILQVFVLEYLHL

IC50, < 10 µM:
CCOc1ccc(C2CNC(=O)N2c2ccc3[nH]cnc3c2)cc1 (configuration not stated), O=C1NCC(c2ccc(Cl)c(Cl)c2)N1c1ccc2nc[nH]c2c1 (configuration not stated), O=C1NCC(c2ccc(-c3ccccc3)c(F)c2)N1c1ccn2ccnc2c1 (configuration not stated), O=C1OC[C@H](C2CCCCC2)N1c1ccc2[nH]cnc2c1, O=C1OC[C@H](c2ccc(N(C3CC3)C3CC3)cc2)N1c1ccc2[nH]cnc2c1, O=C1NCC(c2cccc(-c3ccccc3)c2)N1c1ccc2[nH]cnc2c1 (configuration not stated), O=C1OC[C@H](c2cccc(N3CCOCC3)c2)N1c1ccc2[nH]cnc2c1, O=C1OC[C@H](c2cc(F)cc(C(F)(F)F)c2)N1c1ccc2nc[nH]c2c1, CCCOc1ccc(C2CN(CCCc3ccccc3)C(=O)N2c2ccc3[nH]cnc3c2)cc1 (configuration not stated), O=C1NCC(c2ccc(OC3CCCCC3)cc2)N1c1ccc2[nH]cnc2c1 (configuration not stated), COc1cc(C2CNC(=O)N2c2ccc3[nH]cnc3c2)cc2c1OCO2 (configuration not stated), Cc1cc(N2C(=O)OC[C@@H]2c2ccccc2)cc2nc[nH]c12, O=C1c2ccccc2C(c2ccc(Cl)cc2)N1c1ccc2[nH]cnc2c1 (configuration not stated), O=C1CCC(c2ccc(C3COC(=O)N3c3ccc4[nH]cnc4c3)cc2)CC1 (configuration not stated), O=C1NCC(c2ccc(-c3ccc(Cl)c(Cl)c3)cc2)N1c1ccc2nc[nH]c2c1 (configuration not stated), O=C1NCC(c2cccc(Cl)c2Cl)N1c1ccc2nc[nH]c2c1 (configuration not stated), O=C1NCC(c2ccc(OCCN3CCOCC3)cc2)N1c1ccn2ccnc2c1 (configuration not stated), CCN(CC)c1ccc([C@H]2CNC(=O)N2c2ccc3[nH]cnc3c2)cc1, O=C1NCC(c2ccccc2OCCN2CCOCC2)N1c1ccc2nc[nH]c2c1 (configuration not stated), CCCOc1ccc([C@H]2[C@H](c3ccccc3)OC(=O)N2c2ccc3[nH]cnc3c2)cc1, O=C1NCC(c2ccc(C3CCCCC3)cc2)N1c1ccc2[nH]cnc2c1 (configuration not stated), O=C1NCC(c2ccc(OCCCN3CCOCC3)cc2)N1c1ccc2nc[nH]c2c1 (configuration not stated), COc1cc(C2CNC(=O)N2c2ccn3ccnc3c2)cc2c1OCO2 (configuration not stated), COc1cc(F)c(C2CNC(=O)N2c2ccc3nc[nH]c3c2)c(F)c1 (configuration not stated), COc1ccc(C2CN(N)C(=O)N2c2ccc3[nH]cnc3c2)cc1 (configuration not stated), O=C1OC[C@H](c2ccc(N3CCOCC3)cc2)N1c1ccn2ccnc2c1, O=C1NCC(c2ccc(N3CCOCC3)cc2)N1c1ccc2[nH]cnc2c1 (configuration not stated), O=C1OC[C@H](c2ccc(Cl)cc2)N1c1ccc2nc[nH]c2c1, O=C1OC[C@H](C2CCN(c3ccccc3)CC2)N1c1ccc2[nH]cnc2c1, CCCOc1ccc(C2CN(Cc3ccccc3)C(=O)N2c2ccc3[nH]cnc3c2)cc1 (configuration not stated), O=C1NCC(c2ccccc2Cl)N1c1ccc2nc[nH]c2c1 (configuration not stated), O=C1OC[C@H](c2cccc(F)c2)N1c1ccc2[nH]cnc2c1, COCCCc1ccc(C2CNC(=O)N2c2ccc3[nH]cnc3c2)cc1 (configuration not stated), CC1(C)OC(=O)N(c2ccc3nc[nH]c3c2)[C@H]1c1ccccc1, O=C1OC[C@H](c2cccc(-c3cccc(Cl)c3)c2)N1c1ccc2nc[nH]c2c1, CCCOc1ccc(C2CN(Cc3ccc4ccccc4c3)C(=O)N2c2ccc3[nH]cnc3c2)cc1 (configuration not stated), O=C1NCC(c2ccc(-c3cccc(Cl)c3)cc2)N1c1ccc2[nH]cnc2c1 (configuration not stated)
